From patent publication US12187717B2, “Compound and use thereof in treating autoimmune diseases” (PARENCHYMA BIOTECH INC., priority 2022, dated 2025)

Columns and labels:
[1] = Pharmacokinetic parameters after oral or intravenous administration; type: in vivo; settings: rats
Experimental: For rats, an oral administration group was fasted for 16 hours, and an intravenous administration group was subjected to intravenous administration with 10 mL/kg of solution prepared by completely dissolving Compound 6 in an ethanol-Cremophor EL mixture corresponding to 7.5% (v/v) of the administered dose, and then diluting in phosphate buffered saline so as to be the final ethanol:Cremophor EL:phosphate buffered saline (0.375:0.375:9.25, v/v/v), without fasting, at the dose concentration listed in Table 3. The oral administration group was supplied with food about 4 hours after administration. Blood collection was performed on the intravenous administration group after 0.083, 0.5, 1, 2, 4, 8, 24 hours from the administration and on the oral administration group after 0.5, 1, 2, 4, 8, 12, 24 hours from the administration, and plasma was recovered using centrifugation. In the recovered plasma, the drug concentration in the plasma was measured using UHPLC-MS/MS method.

[2] = pH-metric solubility and logP (SIRIUS T3); type: physicochemical; settings: pH-metric results, SIRIUS T3
Experimental: After dissolving Compound 6 in ethanol, the solubility was measured and analyzed using a SIRIUS T3 machine.

CYP1A2 = target: T1, CYP1A2 (Homo sapiens, UniProt P05177); assay: CYP isoenzyme activity; type: in vitro ADME; settings: 10 μM
T1 sequence (P05177 1-516): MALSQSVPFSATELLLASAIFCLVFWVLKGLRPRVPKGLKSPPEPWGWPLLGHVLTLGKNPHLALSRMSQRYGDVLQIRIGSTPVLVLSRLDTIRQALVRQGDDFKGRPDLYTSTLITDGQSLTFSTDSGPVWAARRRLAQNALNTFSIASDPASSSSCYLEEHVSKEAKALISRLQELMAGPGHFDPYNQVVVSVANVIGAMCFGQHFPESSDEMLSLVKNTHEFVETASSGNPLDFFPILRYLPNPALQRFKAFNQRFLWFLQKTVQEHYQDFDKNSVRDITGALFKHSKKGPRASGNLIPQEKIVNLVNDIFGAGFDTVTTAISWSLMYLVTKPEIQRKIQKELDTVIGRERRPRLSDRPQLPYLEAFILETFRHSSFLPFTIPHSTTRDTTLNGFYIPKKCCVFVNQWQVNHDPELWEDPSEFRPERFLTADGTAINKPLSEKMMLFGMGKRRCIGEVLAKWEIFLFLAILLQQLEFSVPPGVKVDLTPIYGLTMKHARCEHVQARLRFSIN

CYP2C9 = CYP2C9 (Homo sapiens, UniProt P11712); assay: CYP isoenzyme activity; type: in vitro ADME; settings: 10 μM
CYP2C19 = CYP2C19 (Homo sapiens, UniProt P33261); assay: CYP isoenzyme activity; type: in vitro ADME; settings: 10 μM
CYP3A4 = CYP3A4 (Homo sapiens, UniProt P08684); settings: 2 days, 10 μM
Experimental: Live human hepatocyte cell lines (Corning, Cat No. 454551) were collected using a plating medium, seeded on a 24-well plate so that a cell density thereof was 0.4×10^6 cells/well, and cultured for 2 to 4 hours. After replacing the plating medium with a hepatocyte culture medium, the hepatocytes were cultured for 24 hours. After culturing for 24 hours, hepatocytes were treated with Compound 6 at 1, 5, 25 µM. The medium containing the compound was changed every 24 hours for 2 days. The cultured cells were recovered to prepare mRNA samples. mRNA was extracted from the recovered cells by a phenol-chloroform sedimentation method using TRIZOL reagent (Invitrogen, Cat No. 15596018). From the isolated RNA, cDNA was synthesized by reverse transcription, followed by measuring drug metabolizing enzymes CYP1A2, CYP2C9, CYP2C19, CYP2B6, and CYP3A4 through real-time PCR analysis using the Quant Studio™ 7 Flex Real-Time PCR System (Applied Biosystems, CA). Relative values of the enzyme expression levels were compared by the ΔΔct method using GAPDH as a control enzyme. Herein, one (1) fold was set using the control. Results are expressed as % of control compared to control sample.

CYP2D6 = CYP2D6 (Homo sapiens, UniProt P10635); settings: 2 days, 10 μM
[3] = rat, plasma, Intravenous (IV), 1 mg/kg
[4] = rat, plasma, Oral (PO), 10 mg/kg
[5] = rat, plasma, Oral (PO), 100 mg/kg
[6] = Oral (PO), 10 mg/kg (reference dose, dose ratio 1)
[7] = Oral (PO), 100 mg/kg relative to 10 mg/kg (dose ratio 10.0)

CYP2C19, sequence (P33261 whole entry): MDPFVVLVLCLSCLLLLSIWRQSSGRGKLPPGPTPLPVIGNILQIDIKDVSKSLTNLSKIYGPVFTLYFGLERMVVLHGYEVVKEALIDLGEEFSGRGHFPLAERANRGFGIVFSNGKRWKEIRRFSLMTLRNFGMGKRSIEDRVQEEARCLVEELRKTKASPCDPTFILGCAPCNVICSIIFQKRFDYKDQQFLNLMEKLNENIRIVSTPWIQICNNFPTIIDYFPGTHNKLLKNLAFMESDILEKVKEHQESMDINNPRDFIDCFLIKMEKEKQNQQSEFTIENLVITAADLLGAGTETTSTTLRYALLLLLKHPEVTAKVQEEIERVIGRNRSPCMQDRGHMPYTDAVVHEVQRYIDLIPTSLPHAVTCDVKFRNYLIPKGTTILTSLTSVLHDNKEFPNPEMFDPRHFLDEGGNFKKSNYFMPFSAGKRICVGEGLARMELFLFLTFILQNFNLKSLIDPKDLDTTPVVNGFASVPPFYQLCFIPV
CYP3A4, sequence (P08684 whole entry): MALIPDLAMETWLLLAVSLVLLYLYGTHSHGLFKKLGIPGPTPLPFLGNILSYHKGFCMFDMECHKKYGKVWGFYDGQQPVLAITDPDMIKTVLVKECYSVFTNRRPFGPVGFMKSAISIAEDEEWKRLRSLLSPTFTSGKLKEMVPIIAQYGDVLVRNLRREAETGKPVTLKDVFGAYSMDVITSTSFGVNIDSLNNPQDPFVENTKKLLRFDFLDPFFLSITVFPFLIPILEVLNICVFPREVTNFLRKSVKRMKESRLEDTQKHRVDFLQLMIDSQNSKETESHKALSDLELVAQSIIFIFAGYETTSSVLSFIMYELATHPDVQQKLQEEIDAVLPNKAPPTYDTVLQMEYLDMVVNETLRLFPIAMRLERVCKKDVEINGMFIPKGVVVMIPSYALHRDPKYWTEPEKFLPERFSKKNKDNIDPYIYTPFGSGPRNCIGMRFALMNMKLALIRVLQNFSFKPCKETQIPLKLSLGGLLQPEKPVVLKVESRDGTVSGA
CYP2D6, sequence (P10635 whole entry): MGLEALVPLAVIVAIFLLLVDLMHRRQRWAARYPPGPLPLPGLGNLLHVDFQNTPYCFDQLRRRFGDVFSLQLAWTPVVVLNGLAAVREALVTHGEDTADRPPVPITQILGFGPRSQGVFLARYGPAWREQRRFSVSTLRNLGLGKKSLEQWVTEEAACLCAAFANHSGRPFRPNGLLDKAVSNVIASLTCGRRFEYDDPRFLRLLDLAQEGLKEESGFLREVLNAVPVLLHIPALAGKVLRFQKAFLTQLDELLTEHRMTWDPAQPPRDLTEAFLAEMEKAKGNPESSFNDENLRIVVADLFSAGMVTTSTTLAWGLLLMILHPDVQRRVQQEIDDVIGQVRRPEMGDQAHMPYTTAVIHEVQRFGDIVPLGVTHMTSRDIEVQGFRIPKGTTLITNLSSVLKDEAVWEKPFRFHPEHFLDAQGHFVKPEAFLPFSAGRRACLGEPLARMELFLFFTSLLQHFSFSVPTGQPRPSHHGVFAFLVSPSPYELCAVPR
CYP2C9, sequence (P11712 whole entry): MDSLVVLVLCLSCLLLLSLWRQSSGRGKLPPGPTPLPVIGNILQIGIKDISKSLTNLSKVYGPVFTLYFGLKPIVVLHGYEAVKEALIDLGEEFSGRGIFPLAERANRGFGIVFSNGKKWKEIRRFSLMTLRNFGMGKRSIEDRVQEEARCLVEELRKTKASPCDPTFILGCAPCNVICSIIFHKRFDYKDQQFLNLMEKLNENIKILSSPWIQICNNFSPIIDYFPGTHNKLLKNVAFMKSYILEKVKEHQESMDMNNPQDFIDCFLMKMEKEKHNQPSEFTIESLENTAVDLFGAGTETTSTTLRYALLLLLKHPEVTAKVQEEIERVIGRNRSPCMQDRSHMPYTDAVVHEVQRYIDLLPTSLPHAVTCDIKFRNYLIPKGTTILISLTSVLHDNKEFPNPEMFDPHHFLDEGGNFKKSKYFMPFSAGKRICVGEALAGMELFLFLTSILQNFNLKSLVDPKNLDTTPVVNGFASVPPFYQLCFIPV

`O=C(Cc1c[nH]c2ccc(Cl)cc12)Nc1nc2ccccc2s1` [Comparative Example 1, N-(benzo[d]thiazol-2-yl)-2-(5-chloro-1H-indol-3-yl)acetamide, reference compound] gave an AUC(0-t) [1, 3] of 183 ng·h/mL, a C0 [1, 3] of 406 ng/mL and a clearance [1, 3] of 7.17 mL/min/kg. It also gave a half-life [1, 3] of 48 min, a Vd ([1]; rat, plasma, Intravenous (IV), 1 mg/kg, read-out: Vdss) of 0.311 L/kg and an AUC(0-t) [1, 4] of 366 ng·h/mL. It also gave a Cmax [1, 4] of 126 ng/mL, a Tmax [1, 4] of 60 min and a half-life [1, 4] of 54 min. The bioavailability ([1]; rat, plasma, Oral (PO), 10 mg/kg, read-out: Bioavailability (F %)) was 20%, the AUC(0-t) [1, 5] was 644 ng·h/mL and the Cmax [1, 5] was 152 ng/mL. The Tmax [1, 5] was 30 min, the half-life [1, 5] was 408 min and the “AUClast Ratio” value [1, 6] was 1.0. The Cmax ratio [1, 6] was 1.0, the “AUClast Ratio” value [1, 7] was 1.8 and the Cmax ratio [1, 7] was 1.2. For the same compound, the logP [2] was 2.8, the “pH-metric solubility, Molarity” value [2] was 3.65 μM and the “pH-metric solubility, Weight/ml” value [2] was 1.248 μg/ml. The CYP1A2 activity (CYP1A2) was 64.6 % of Control Activity, the CYP2C9 activity (CYP2C9) was 91.9 % of Control Activity and the CYP2C19 activity (CYP2C19) was 24.4 % of Control Activity. For the same compound, the “inhibition of the enzyme activity of CYP2C19” value (CYP2C19) was 24.4%, the CYP3A4 activity (CYP3A4) was 107.6 % of Control Activity and the CYP2D6 activity (CYP2D6) was 93.3 % of Control Activity.
